US20240116985A1, “STAPLED PEPTIDES AND METHODS THEREOF” (priority 2020, published 2024)
Converted amounts (≈) assume the structure as drawn. Like-named read-outs stand apart in the source and are kept apart here.

Columns and labels:
Solubility in PBS = format: physicochemical
Outline: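 Solubility is derived from HPLC peak areas: the ratio of the PBS supernatant peak to a 50 μM DMSO peptide peak, times 50 uM.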

[1] = target: T1, full-length beta-Catenin (Uniprot ID P35222) (Homo sapiens, UniProt P35222); assay: Fluorescence polarization IC50 (beta-catenin / 5FAM-TCF4 10-53 competition); format: binding
T1 construct: 10 nM full-length beta-Catenin (Uniprot ID P35222)
T1 sequence (P35222 1-781): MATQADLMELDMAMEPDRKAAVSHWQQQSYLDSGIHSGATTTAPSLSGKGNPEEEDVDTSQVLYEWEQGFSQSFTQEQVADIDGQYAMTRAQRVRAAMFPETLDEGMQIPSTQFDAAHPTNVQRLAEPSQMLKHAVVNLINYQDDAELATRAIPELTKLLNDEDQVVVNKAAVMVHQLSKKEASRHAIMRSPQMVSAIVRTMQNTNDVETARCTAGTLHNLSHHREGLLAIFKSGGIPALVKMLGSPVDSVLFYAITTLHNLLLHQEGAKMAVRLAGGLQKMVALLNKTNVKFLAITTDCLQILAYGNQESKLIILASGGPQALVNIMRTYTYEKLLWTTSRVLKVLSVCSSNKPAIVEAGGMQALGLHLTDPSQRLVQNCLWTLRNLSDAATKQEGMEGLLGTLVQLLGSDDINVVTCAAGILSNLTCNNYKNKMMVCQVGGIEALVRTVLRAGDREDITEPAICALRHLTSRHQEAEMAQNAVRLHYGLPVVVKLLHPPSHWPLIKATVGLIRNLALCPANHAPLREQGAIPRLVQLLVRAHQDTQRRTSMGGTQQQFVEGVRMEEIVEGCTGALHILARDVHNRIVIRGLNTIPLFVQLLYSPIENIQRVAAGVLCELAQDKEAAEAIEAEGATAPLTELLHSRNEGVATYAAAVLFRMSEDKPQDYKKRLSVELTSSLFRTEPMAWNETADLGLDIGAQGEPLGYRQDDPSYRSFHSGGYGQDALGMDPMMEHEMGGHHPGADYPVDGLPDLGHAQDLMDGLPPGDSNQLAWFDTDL

CHI Log D procedure = format: physicochemical; conditions: pH 7.4
[2] = fluorescence polarization, beta-catenin, read-out: FP EC50

Solubility (Solubility in PBS) [µM]	IC50 [1, 2] [nM]	IC50 ([1]; read-out: beta-Catenin FP IC50) [nM]	CHI Log D (CHI Log D procedure)	SMILES
13 (≈ 25.8 µg/mL)	336	336	2.06	CC(=O)N1CCC[C@]12CC=CCCCC1(CCCC=CCCCOC(=O)N3CC[C@@](C(=O)N[C@@H](Cc4ccsc4)C(=O)N[C@@H](Cc4csc5ccccc45)C(=O)N[C@@H](CO)C(N)=O)(C3)NC(=O)[C@H](CC(C)C)NC(=O)[C@H](Cc3ccccc3)NC(=O)[C@H](C)NC(=O)[C@H](C)NC(=O)[C@H](CN(CC(=O)O)CC(F)(F)F)NC(=O)[C@H](CC(=O)O)NC1=O)NC(=O)[C@H](CC(C)(C)C)NC(=O)[C@H](CC(=O)O)NC2=O (stereo partly drawn) [I-960, Ac-PL3-Asp-Npg-B5-Asp-TfeGA-Ala-Ala-Phe-Leu-PyrS2-3Thi-BztA-Ser-NH2]
10 (≈ 19.9 µg/mL)	357	357	2.123	CC(=O)N1CCC[C@]12CC=CCCCC1(CCCC=CCCCOC(=O)N3CC[C@@](C(=O)N[C@@H](Cc4ccsc4)C(=O)N[C@@H](Cc4csc5ccccc45)C(=O)N[C@@H](CO)C(N)=O)(C3)NC(=O)[C@H](CC(C)C)NC(=O)[C@H](Cc3ccccc3)NC(=O)[C@H](C)NC(=O)[C@H](C)NC(=O)[C@H](CN(CC(=O)O)CC(F)(F)F)NC(=O)[C@H](CC(=O)O)NC1=O)NC(=O)[C@H](CC(C)(C)C)NC(=O)[C@H](CC(=O)O)NC2=O (stereo partly drawn) [I-961, Ac-PL3-Asp-Npg-B5-Asp-TfeGA-Ala-Ala-Phe-Leu-PyrS2-3Thi-BztA-Ser-NH2]
46 (≈ 90.9 µg/mL)	1440	1440	1.802	CCN(CC(=O)O)C[C@@H]1NC(=O)[C@H](CC(=O)O)NC(=O)C2(CCCC=CCCCOC(=O)N3CC[C@@](C(=O)N[C@@H](Cc4ccsc4)C(=O)N[C@@H](Cc4csc5ccccc45)C(=O)N[C@@H](CCC(N)=O)C(N)=O)(C3)NC(=O)[C@H](CC(N)=O)NC(=O)[C@H](Cc3ccccc3)NC(=O)[C@H](C)NC(=O)[C@H](C)NC1=O)CCCC=CC[C@]1(CCCN1C(C)=O)C(=O)N[C@@H](CC(=O)O)C(=O)N[C@@H](CC(C)(C)C)C(=O)N2 (stereo partly drawn) [I-964, Ac-PL3-Asp-Npg-B5-Asp-EtGA-Ala-Ala-Phe-Asn-PyrS2-3Thi-BztA-Gln-NH2]
45 (≈ 88.9 µg/mL)	1780	1780	1.903	CCN(CC(=O)O)C[C@@H]1NC(=O)[C@H](CC(=O)O)NC(=O)C2(CCCC=CCCCOC(=O)N3CC[C@@](C(=O)N[C@@H](Cc4ccsc4)C(=O)N[C@@H](Cc4csc5ccccc45)C(=O)N[C@@H](CCC(N)=O)C(N)=O)(C3)NC(=O)[C@H](CC(N)=O)NC(=O)[C@H](Cc3ccccc3)NC(=O)[C@H](C)NC(=O)[C@H](C)NC1=O)CCCC=CC[C@]1(CCCN1C(C)=O)C(=O)N[C@@H](CC(=O)O)C(=O)N[C@@H](CC(C)(C)C)C(=O)N2 (stereo partly drawn) [I-965, Ac-PL3-Asp-Npg-B5-Asp-EtGA-Ala-Ala-Phe-Asn-PyrS2-3Thi-BztA-Gln-NH2]
43 (≈ 83.8 µg/mL)	2020	2020	1.791	CCN(CC(=O)O)C[C@@H]1NC(=O)[C@H](CC(=O)O)NC(=O)C2(CCCC=CCCCOC(=O)N3CC[C@@](C(=O)N[C@@H](Cc4ccsc4)C(=O)N[C@@H](Cc4csc5ccccc45)C(=O)N[C@@H](CCC(N)=O)C(N)=O)(C3)NC(=O)[C@H](CO)NC(=O)[C@H](Cc3ccccc3)NC(=O)[C@H](C)NC(=O)[C@H](C)NC1=O)CCCC=CC[C@]1(CCCN1C(C)=O)C(=O)N[C@@H](CC(=O)O)C(=O)N[C@@H](CC(C)(C)C)C(=O)N2 (stereo partly drawn) [I-966, Ac-PL3-Asp-Npg-B5-Asp-EtGA-Ala-Ala-Phe-Ser-PyrS2-3Thi-BztA-Gln-NH2]
45 (≈ 87.7 µg/mL)	1740	1740	1.884	CCN(CC(=O)O)C[C@@H]1NC(=O)[C@H](CC(=O)O)NC(=O)C2(CCCC=CCCCOC(=O)N3CC[C@@](C(=O)N[C@@H](Cc4ccsc4)C(=O)N[C@@H](Cc4csc5ccccc45)C(=O)N[C@@H](CCC(N)=O)C(N)=O)(C3)NC(=O)[C@H](CO)NC(=O)[C@H](Cc3ccccc3)NC(=O)[C@H](C)NC(=O)[C@H](C)NC1=O)CCCC=CC[C@]1(CCCN1C(C)=O)C(=O)N[C@@H](CC(=O)O)C(=O)N[C@@H](CC(C)(C)C)C(=O)N2 (stereo partly drawn) [I-967, Ac-PL3-Asp-Npg-B5-Asp-EtGA-Ala-Ala-Phe-Ser-PyrS2-3Thi-BztA-Gln-NH2]
30 (≈ 58.9 µg/mL)	2980	2980	1.752	CCN(CC(=O)O)C[C@@H]1NC(=O)[C@H](CC(=O)O)NC(=O)C2(CCCC=CCCCOC(=O)N3CC[C@@](C(=O)N[C@@H](Cc4ccsc4)C(=O)N[C@@H](Cc4csc5ccccc45)C(=O)N[C@@H](CCC(N)=O)C(N)=O)(C3)NC(=O)[C@H]([C@@H](C)O)NC(=O)[C@H](Cc3ccccc3)NC(=O)[C@H](C)NC(=O)[C@H](C)NC1=O)CCCC=CC[C@]1(CCCN1C(C)=O)C(=O)N[C@@H](CC(=O)O)C(=O)N[C@@H](CC(C)(C)C)C(=O)N2 (stereo partly drawn) [I-968, Ac-PL3-Asp-Npg-B5-Asp-EtGA-Ala-Ala-Phe-Thr-PyrS2-3Thi-BztA-Gln-NH2]
46 (≈ 90.3 µg/mL)	2320	2320	1.851	CCN(CC(=O)O)C[C@@H]1NC(=O)[C@H](CC(=O)O)NC(=O)C2(CCCC=CCCCOC(=O)N3CC[C@@](C(=O)N[C@@H](Cc4ccsc4)C(=O)N[C@@H](Cc4csc5ccccc45)C(=O)N[C@@H](CCC(N)=O)C(N)=O)(C3)NC(=O)[C@H]([C@@H](C)O)NC(=O)[C@H](Cc3ccccc3)NC(=O)[C@H](C)NC(=O)[C@H](C)NC1=O)CCCC=CC[C@]1(CCCN1C(C)=O)C(=O)N[C@@H](CC(=O)O)C(=O)N[C@@H](CC(C)(C)C)C(=O)N2 (stereo partly drawn) [I-969, Ac-PL3-Asp-Npg-B5-Asp-EtGA-Ala-Ala-Phe-Thr-PyrS2-3Thi-BztA-Gln-NH2]
10 (≈ 20.1 µg/mL)	1610	1840	1.939	CCN(CC(=O)O)C[C@@H]1NC(=O)[C@H](CC(=O)O)NC(=O)C2(CCCC=CCCCOC(=O)N3CC[C@@](C(=O)N[C@@H](Cc4ccsc4)C(=O)N[C@@H](Cc4csc5ccccc45)C(=O)N[C@@H](CCC(N)=O)C(N)=O)(C3)NC(=O)[C@H](Cc3ccccc3)NC(=O)[C@H](Cc3ccccc3)NC(=O)[C@H](C)NC(=O)[C@H](C)NC1=O)CCCC=CC[C@]1(CCCN1C(C)=O)C(=O)N[C@@H](CC(=O)O)C(=O)N[C@@H](CC(C)(C)C)C(=O)N2 (stereo partly drawn) [I-971, Ac-PL3-Asp-Npg-B5-Asp-EtGA-Ala-Ala-Phe-Phe-PyrS2-3Thi-BztA-Gln-NH2]
30 (≈ 59.2 µg/mL)	1820	1820	1.879	CCN(CC(=O)O)C[C@@H]1NC(=O)[C@H](CC(=O)O)NC(=O)C2(CCCC=CCCCOC(=O)N3CC[C@@](C(=O)N[C@@H](Cc4ccsc4)C(=O)N[C@@H](Cc4csc5ccccc45)C(=O)N[C@@H](CCC(N)=O)C(N)=O)(C3)NC(=O)[C@H](CC(C)C)NC(=O)[C@H](Cc3ccccc3)NC(=O)[C@H](C)NC(=O)[C@H](C)NC1=O)CCCC=CC[C@]1(CCCN1C(C)=O)C(=O)N[C@@H](CC(=O)O)C(=O)N[C@@H](CC(C)(C)C)C(=O)N2 (stereo partly drawn) [I-972, Ac-PL3-Asp-Npg-B5-Asp-EtGA-Ala-Ala-Phe-Leu-PyrS2-3Thi-BztA-Gln-NH2]
10 (≈ 19.1 µg/mL)	1780	1780	1.857	CCN(CC(=O)O)C[C@@H]1NC(=O)[C@H](CC(=O)O)NC(=O)C2(CCCC=CCCCOC(=O)N3CC[C@@](C(=O)N[C@@H](Cc4ccsc4)C(=O)N[C@@H](Cc4csc5ccccc45)C(=O)N[C@@H](CO)C(N)=O)(C3)NC(=O)[C@H](CO)NC(=O)[C@H](Cc3ccccc3)NC(=O)[C@H](C)NC(=O)[C@H](C)NC1=O)CCCC=CC[C@]1(CCCN1C(C)=O)C(=O)N[C@@H](CC(=O)O)C(=O)N[C@@H](CC(C)(C)C)C(=O)N2 (stereo partly drawn) [I-974, Ac-PL3-Asp-Npg-B5-Asp-EtGA-Ala-Ala-Phe-Ser-PyrS2-3Thi-BztA-Ser-NH2]
46 (≈ 87.7 µg/mL)	1710	2240	1.952	CCN(CC(=O)O)C[C@@H]1NC(=O)[C@H](CC(=O)O)NC(=O)C2(CCCC=CCCCOC(=O)N3CC[C@@](C(=O)N[C@@H](Cc4ccsc4)C(=O)N[C@@H](Cc4csc5ccccc45)C(=O)N[C@@H](CO)C(N)=O)(C3)NC(=O)[C@H](CO)NC(=O)[C@H](Cc3ccccc3)NC(=O)[C@H](C)NC(=O)[C@H](C)NC1=O)CCCC=CC[C@]1(CCCN1C(C)=O)C(=O)N[C@@H](CC(=O)O)C(=O)N[C@@H](CC(C)(C)C)C(=O)N2 (stereo partly drawn) [I-975, Ac-PL3-Asp-Npg-B5-Asp-EtGA-Ala-Ala-Phe-Ser-PyrS2-3Thi-BztA-Ser-NH2]
